From paper PMC11910216, “Targeting ubiquitin-independent proteasome with small molecule increases susceptibility in pan-KRAS–mutant cancer models” (The Journal of Clinical Investigation, 2025)
pIC50: −log10 of the molar value. “And” between values parts separate entries of the source, which are not always exact repeats. Equal entries are not always repeated.

Key:
H522 cells = test: Cell viability assay (CCK-8); format: cell-based; conditions: Homo sapiens, NCI-H522; H522, Lung; Supplemental Table 4
Procedure: (§5) Cells were seeded into 96-well plates at a density of 1,500 cells per well. Cells were then cultivated at 37°C for different periods (0 hours, 24 hours, 48 hours, 72 hours, 96 hours). Upon measurement, 10 μL CCK-8 (Yeasen, 40203ES80) mixed with 100 μL serum-free medium was added to each well and incubated for 1 hour at 37°C. Plates were shaken, and optical density values were determined at 450 nm using a microplate reader (BioTek, Synergy Neo2).

HCC4006 cells = test: Cell viability assay (CCK-8); format: cell-based; conditions: Homo sapiens; HCC4006 (KRAS-WT); 72 hours
Procedure: as §5

Panc-28 cells = test: Cell viability assay (CCK-8); format: cell-based; conditions: Panc-28 (KRAS-MUT); 72 hours
Procedure: as §5

H358 cells = test: Cell viability assay (CCK-8); format: cell-based; conditions: Homo sapiens, NCI-H358; H358 (KRAS-MUT); 72 hours
Procedure: as §5

HCT116 cells = test: Apoptosis, annexin V and propidium iodide flow cytometry; format: cell-based, human; set-up: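 percent of Annexin V and PI stained apoptotic cells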
Procedure: (§1) The Apoptosis Detection Kit (MultiSciences Biotech Co. Ltd.) was used to detect cell death according to the manufacturer’s protocol. After RLY01 treatment, both attached and floating cells were harvested, washed with PBS, suspended in binding buffer, stained in annexin V–allophycocyanin (APC) and propidium iodide (PI), and analyzed by flow cytometry. For each experiment, 1 × 10^6 cells/mL were analyzed by the flow cytometer (BD Biosciences) and analyzed with FlowJo v10.8.1 (BD Biosciences).

HCT15 cells [1] = test: as above; format: cell-based, human; set-up: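 percent of Annexin V and PI stained apoptotic cells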
Procedure: as §1

A549 cells = test: as above; format: cell-based, human; set-up: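 percent of Annexin V and PI stained apoptotic cells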
Procedure: as §1

[2] = tested on: cleaved PARP and cleaved caspase-3; test: Immunoblotting of apoptosis-related proteins; format: cell-based, human
Procedure: Protein extracts were loaded onto SDS polyacrylamide gels. Gels were transferred onto nitrocellulose membranes, and the membranes were blocked for 1 hour. After overnight incubation with primary antibody at 4°C, the membranes were washed and probed with fluorescent IRDye 800 CW goat anti-rabbit IgG (1:10,000), IRDye 800 CW goat anti-mouse (1:10,000), and IRDye 680 RD goat anti-mouse IgG (1:5,000) antibodies (Cell Signaling Technology). The membranes were then imaged with the Odyssey Infrared Imaging System (LI-COR Biosciences). The primary antibodies used were mouse anti–β-actin (MBL, M177-3), rabbit anti-REGγ (Abcam, ab157157), rabbit anti-KRAS (Abcam, ab275876), rabbit anti-NRF2 (Abcam, ab137550), mouse anti-GAPDH (Proteintech, 60004-1-Ig), anti-FLAG tag (Solarbio, K200001M), anti-HA tag (Abcam, ab9110), rabbit anti-α7 (Abcam, ab133502), rabbit anti-LATS1 (Cell Signaling Technology, 3477), rabbit anti-IκBε (Abcam, ab13413), rabbit anti-p16 (Proteintech, 10883-1-AP), mouse anti-p21 (BD Biosciences, 612234), rabbit anti-PARP (Cell Signaling Technology, 9542), and rabbit anti–caspase-3 ([…], 9662).

H3122 cells = test: Cell viability assay (CCK-8); format: cell-based; conditions: Homo sapiens, NCI-H3122; H3122, Lung; Supplemental Table 4
Procedure: as §5

Calu1-KRASG13D cells = test: Colony formation assay, RLY01 and AMG510; format: cell-based, human
Procedure: (§2) Cells were equally seeded into 12-well plates at a density of 2,000 cells per well. Cultivated for 6–10 days, cells were fixed with 4% polyoxymethylene and stained with 0.2% crystal violet. Images of stained colonies were taken, and the numbers of the colonies were recorded and compared within different groups. Each experiment was representative of at least 3 independent experiments. […]
(§3) by using CompuSyn software (Version 1). The averages and error bars represent the mean ± SEM from three independent experiments. (E-H) Representative colony formation images of Calu1, Calu1- KRASG13D and Calu1- KRASY96D cells (E) and H358, H358- KRASG13D and H358- KRASY96D cells (G) cell with or without RLY01 and […]
(§4) controls. Each value represents mean ± SEM (n = 3). *p < 0.05, **p < 0.01, ***p < 0.001, ****p < 0.0001; p values were measured by two-way ANOVA with Tukey’s multiple-comparisons test.

H358-KRASG13D cells = test: Colony formation assay, RLY01 and AMG510; format: cell-based, human
Procedure: as §2, §3, §4

H358-KRASY96D cells = test: Colony formation assay, RLY01 and AMG510; format: cell-based, human
Procedure: as §2, §3, §4

Calu1-KRASY96D cells = test: Colony formation assay, RLY01 and AMG510; format: cell-based, human
Procedure: as §2, §3, §4

HCT116-REGγ-KO cells = test: Cell viability assay (CCK-8); format: cell-based; conditions: Homo sapiens, Figure 5F
Procedure: as §5

H1299 cells = test: Cell viability assay (CCK-8); format: cell-based; conditions: Homo sapiens, NCI-H1299; H1299, Lung; Supplemental Table 4
Procedure: as §5

[3] = tested on: Calu1 cells infected with KRAS G12C; test: cells; format: cell-based, human
Procedure: (A and B) Cell viability assays performed with Calu1 cells infected
with retrovirus packaging KRAS (G12C, G12C/G13D or G12C/Y96D). Cell lines were
measured with CellTiter-Glo. (C and D) Calu1-KRASG13D (C) and Calu1- KRASY96D
(KRASG12C inhibitor) alone or in combination for 72 hours, and the cell viability was

proteasome pathway = test: Proteomic profiling, KEGG pathway enrichment; format: cell-based, human; conditions: RLY01 10 μM
HCT15 cells [4] = test: Cell viability assay (CCK-8); format: cell-based; conditions: Homo sapiens, HCT-15
Procedure: as §5

COc1ccc(C2C(C#N)=C(N)Oc3[nH]ncc32)cc1COc1ccc(Cl)cc1 (stereo not shown) [RLY01]
pIC50 (H522 cells): 4.50
pIC50 (HCC4006 cells): 4.49
pIC50 (Panc-28 cells): 4.84
pIC50 (H358 cells): 4.94
apoptotic cells (HCT116 cells; HCT116, 10 μM): 12.73 and 12.39 and 12.42
apoptotic cells (HCT116 cells; HCT116, 20 μM): 22.64 and 21.85 and 22.34
apoptotic cells (HCT116 cells; HCT116, 40 μM): 31.84 and 31.78 and 34
apoptotic cells (HCT15 cells [1]; HCT15, 10 μM): 6.54 and 5.74 and 6.11
apoptotic cells (HCT15 cells [1]; HCT15, 20 μM): 13.68 and 14.22 and 13.53
apoptotic cells (HCT15 cells [1]; HCT15, 40 μM): 21.06 and 20.27 and 21.43
apoptotic cells (A549 cells; A549, 10 μM): 17.18 and 16.02 and 16.64
apoptotic cells (A549 cells; A549, 20 μM): 32.97 and 32.55 and 33.65
apoptotic cells (A549 cells; A549, 40 μM): 50.21 and 50.13 and 50.63
levels of cleaved PARP and cleaved caspase-3 ([2]; HCT15, A549, HCT116 cells, concentration-dependent and REGγ-dependent): increased the levels of the apoptosis-related proteins cleaved PARP (Cl-PARP) and cleaved caspase-3 (Cl-caspase-3)
apoptosis (cleaved PARP, cleaved caspase-3) ([2]; HCT116-REGγ-KO cells): no substantial effect on apoptosis
pIC50 (H3122 cells): 4.50
colony formation relative to DMSO (Calu1-KRASG13D cells): 40.0491 and 33.3365 and 29.5412
colony formation relative to DMSO (H358-KRASG13D cells): 21.187 and 26.3594 and 20.6399
colony formation relative to DMSO (H358-KRASY96D cells): 23.2509 and 24.3365 and 19.813
colony formation relative to DMSO (Calu1-KRASY96D cells): 40.6617 and 32.1848 and 24.6924
pIC50 (HCT116-REGγ-KO cells): 3.99
pIC50 (H1299 cells): 4.87
cell viability ([3]; Calu1, 0.390625 μM, 0.390625 µM): 102.753 and 93.4181
cell viability ([3]; Calu1, 0.78125 μM, 0.78125 µM): 107.421 and 102.032
cell viability ([3]; Calu1, 1.5625 μM, 1.5625 µM): 95.8437 and 90.7303
cell viability ([3]; Calu1, 3.125 μM, 3.125 µM): 96.3551 and 85.8136
cell viability ([3]; Calu1, 6.25 μM, 6.25 µM): 67.1693 and 71.5484
cell viability ([3]; Calu1, 12.5 μM, 12.5 µM): 52.9959 and 57.0473
cell viability ([3]; Calu1, 25 μM, 25 µM): 46.8992 and 44.4474
cell viability ([3]; Calu1, 50 μM, 50 µM): 35.3612 and 29.2251
cell viability ([3]; Calu1, 100 μM, 100 µM): 20.4537 and 21.2928
viability at 0.390625 µM ([3]; Homo sapiens, Calu-1, read-out: cell viability, Calu1, 0.390625 μM): 104%
viability at 0.78125 µM ([3]; Homo sapiens, Calu-1, read-out: cell viability, Calu1, 0.78125 μM): 90.3%
viability at 1.5625 µM ([3]; Homo sapiens, Calu-1, read-out: cell viability, Calu1, 1.5625 μM): 97%
viability at 3.125 µM ([3]; Homo sapiens, Calu-1, read-out: cell viability, Calu1, 3.125 μM): 96.9%
viability at 6.25 µM ([3]; Homo sapiens, Calu-1, read-out: cell viability, Calu1, 6.25 μM): 69.8%
viability at 12.5 µM ([3]; Homo sapiens, Calu-1, read-out: cell viability, Calu1, 12.5 μM): 53.6%
viability at 25 µM ([3]; Homo sapiens, Calu-1, read-out: cell viability, Calu1, 25 μM): 47.7%
viability at 50 µM ([3]; Homo sapiens, Calu-1, read-out: cell viability, Calu1, 50 μM): 31.6%
viability at 100 µM ([3]; Homo sapiens, Calu-1, read-out: cell viability, Calu1, 100 μM): 21.2%
pathway affected (KEGG enrichment) (proteasome pathway): predominantly affected the proteasome pathway
pIC50 (HCT15 cells [4]; HCT15 (KRAS-MUT), 72 hours): 5.26
pIC50 (HCT15 cells [4]; HCT15, Colon, Supplemental Table 4): 5.26
